US6589991B1, “Therapeutic methods employing disulfide derivatives of dithiocarbamates and compositions useful therefor” (Medinox, Inc., priority 1998, dated 2003)
“Also recorded” adds a separate entry of the source.

Columns and labels:
Lewis rats = settings: 10 mg/ml in drinking water; scored 0-6 from day 6; n=9
Procedure: The test rats (▪) were given L-PD in drinking water (10 mg/ml). Control rats ([formula]) received only distilled water for drinking. Beginning on day 6, the left foot of the animals was scored for the development of arthritic disease using the following system: 0=no redness or inflammation, 1=one area of redness or inflammation on the foot less than 2 mm in diameter, 3=partial redness/inflammation of the footpad, 4=all of footpad red or inflamed, 5=criteria of 4 plus at least one toe red or inflamed, and 6=criteria of 4 plus toes inflamed and deformed (toes curling under footpad).
After the subcutaneous injection in the right footpad of a suspension in mineral oil of heat killed M. tuberculosis on day 1, the Lewis rats were separated into two groups (n=9); one given L-PD (10 mg/ml) in the drinking water and the other given only distilled water. Beginning on day 6, the left foot of the animals was scored for the development of arthritic disease using the following system: 0=no redness or inflammation, 1=one area of redness or inflammation on the foot less than 2 mm in diameter, 3=partial redness/inflammation of the footpad, 4=all of footpad red or inflamed, 5=criteria of 4 plus at least one toe red or inflame, d, and 6=criteria of 4 plus toes inflamed and deformed (toes curling under footpad).

diabetic-prone BB rats = system: diabetic-prone BB rats
Procedure: FIG. 4 is a graph illustrating the effects of oral administration of L-proline dithiocarbamate on the survival of diabetic-prone BB rats. The percentage of survival was plotted against the age of the animals over 125 days. The treated group (n=30) (▪) received 5 mg/ml monomeric L-proline dithiocarbamate in drinking water, while the untreated group (n=31) (□) received only water.
We tested the effectiveness of the oral administration of (L-PD) for the treatment of diabetic-prone BB rats, an animal model that is widely used for type I insulin-dependent diabetes. Type I diabetes is an autoimmune disease. the pathogenesis of this disease remains unclear although there is ample evidence for increased NO production at early stages of the disease (see, for example, G. M. Piper, Hypertension, 31: 1047-1060, 1998).
Male, diabetic-prone BB rats (n=61, 250-280 g) were used for the study. The rats were distributed between untreated and L-PD treated groups. The treated group received 5 mg/ml L-PD in drinking water. The treatment started when the animals were 2 months old and continued until they were 4 months old. […] Percent survival was calculated by Product-Limit Survival Analysis Generalized Savage (Mantel-Cox) with p<0.01.

[1] = format: physicochemical; settings: KCN in water; UV spectrum recorded immediately after mixing
[2] = Conversion of the dithiocarbamate disulfide to the monomer by L-cysteine (UV spectrum); format: physicochemical; settings: L-cysteine 5 mg/mL in 60 mM HEPES pH 7.4; disulfide 20 μg/mL; UV 190-340 nm
Procedure: FIG. 2 is an illustration of the UV spectrum of N-methyl-D-glucamine dithiocarbamate disulfide (MGDD) (20 μg/mL)in the presence of L-cysteine (5 mg/mL). The spectrum was recorded with a scan range of 190 nm to 340 nm.
FIG. 10 is an illustration of the UV spectrum measured on Hewlett Packard 8451A Diode Array Spectrophotometer. Scanning wavelength 190 nm-340 nm. One mL freshly prepared solution of L-cysteine (5 mg/mL) in 60 mM HEPES buffer, pH=7.4 is transferred into the UV cell (cell length 1 cm) plus 1 μl acetone and the absorbance of this solution is measured as a background. Added 1 μl stock solution of Pyrrolidine dithiocarbamate disulfide (PDD) in acetone to the cuvette—final concentration of PDD is 20 μg/mL. After mixing the UV spectrum is measured immediately.
A freshly prepared solution of L-cysteine (5 mg/mL) in 60 mM HEPES buffer, pH 7.4 was transferred into a UV cell (cell length 1cm) plus 1 μl acetone and the absorbance of this solution was recorded as background. Immediately after the addition of Pyrrolidine dithiocarbamate disulfide (PDD) (final concentration of 20 μg/mL), the spectrum was recorded with a scan range of 190 nm to 340 nm.

[3] = Stability at pH 1 / stomach acid; format: physicochemical
[4] = cited from earlier work

NC(=S)S.O=C(O)[C@@H]1CCCN1 [L-PD, L-proline dithiocarbamate]
severity score of the inflammation in the left footpad (Lewis rats): significantly reduced
animals surviving at the end of the experiments (diabetic-prone BB rats; 5 mg/ml in drinking water for 2 months (age 2 to 4 months), untreated 10 percent, p<0.01): more than 30%
improvement in survival compared to the untreated group (diabetic-prone BB rats; 5 mg/ml in drinking water, n=30, over 125 days): statistically significant
effect on water consumption (diabetic-prone BB rats; chronic treatment, 5 mg/ml in drinking water): no apparent effect

CN(C[C@H](O)[C@@H](O)[C@H](O)[C@H](O)CO)C(=S)SSC(=S)N(C)C[C@H](O)[C@@H](O)[C@H](O)[C@H](O)CO [MGDD, N-methyl-D-glucamine dithiocarbamate disulfide]
reaction with potassium cyanide [1]: fast reaction
conversion to the monomeric dithiocarbamate on addition of L-cysteine [2]: readily be converted into its starting material, MGD; also recorded: identical to that of N-methyl-D-glucamine dithiocarbamate

S=C(SSC(=S)N1CCCC1)N1CCCC1 [PDD, Pyrrolidine dithiocarbamate disulfide]
reaction with potassium cyanide [1]: fast reaction
conversion to the monomeric dithiocarbamate on addition of L-cysteine [2]: readily be converted into its starting material, pyrrolidine dithiocarbamate
time stable at pH 1 [3]: ≤ 24 hours

S=C(S)N1CCCC1 [Pyrrolidine dithiocarbamate]
stability in the presence of stomach acid [4]: breaks down to ineffective species
